Results from patent publication US20230049231A1 (priority 2019, published 2023).
pIC50: −log10 of the molar value.

What was measured:
hERG channel = molecular target: T1, hERG channel (Homo sapiens, UniProt Q12809); assay: hERG electrophysiology, automated whole-cell patch clamp (Patchliner); assay type: cell-based
T1 construct: expressed in transfected cells
In short: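 Automated whole-cell patch clamp on CHO-K1 cells stably expressing hERG; 30 nM–100 μM applied cumulatively to the same cell, ≤0.3% DMSO. Pulses: −80 mV holding, +20 mV for 300 ms, −50 mV for 300 ms tail, 0.3 Hz, 70 per concentration. Last-pulse AUC and peak, normalized to control, were fitted to a Hill equation for IC50.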

Kv1.3 potassium channel = molecular target: T2, Kv1.3 potassium channel (Homo sapiens, UniProt P22001); assay: Kv1.3 potassium channel blocker activity, automated whole-cell patch clamp (Patchliner); assay type: cell-based
T2 construct: expressed in transfected cells
In short: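 IC50 came from Hill-equation fits of peak and AUC currents from the final pulse at each concentration, normalized to compound-free control. Compounds applied consecutively at 30 nM to 100 μM (up to 0.3% DMSO) to Kv1.3-expressing CHO-K1 cells, P/4 leak subtraction. Pulses were +40 mV, 100 ms, from −90 mV holding, at 0.1 Hz on Patchliner.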

[1] = hERG channel, whole-cell patch clamp
[2] = Kv1.3 potassium channel, whole-cell patch clamp
[3] = CHO-K1 cells stably expressing hERG, +20 mV 300 ms, -50 mV 300 ms tail current, 0.3 Hz
[4] = CHO-K1 cells stably expressing Kv1.3, 100 ms pulses from -90 mV to +40 mV, 0.1 Hz

T2 sequence (P22001 whole entry): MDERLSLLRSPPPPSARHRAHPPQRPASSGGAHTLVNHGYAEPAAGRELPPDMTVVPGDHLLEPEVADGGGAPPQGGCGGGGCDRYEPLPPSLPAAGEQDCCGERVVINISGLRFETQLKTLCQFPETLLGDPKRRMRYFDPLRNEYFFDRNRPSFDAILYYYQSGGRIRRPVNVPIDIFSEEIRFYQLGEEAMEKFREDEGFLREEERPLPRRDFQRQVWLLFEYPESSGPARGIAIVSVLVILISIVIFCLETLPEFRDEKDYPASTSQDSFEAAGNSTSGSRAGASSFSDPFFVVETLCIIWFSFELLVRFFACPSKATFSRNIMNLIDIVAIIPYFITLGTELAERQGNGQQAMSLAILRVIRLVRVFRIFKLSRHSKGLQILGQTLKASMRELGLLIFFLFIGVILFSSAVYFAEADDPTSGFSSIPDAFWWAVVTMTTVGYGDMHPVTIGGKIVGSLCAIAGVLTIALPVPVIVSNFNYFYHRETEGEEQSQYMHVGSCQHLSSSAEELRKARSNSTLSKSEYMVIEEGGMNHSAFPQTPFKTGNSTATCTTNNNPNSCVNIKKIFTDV
T1 sequence (Q12809 whole entry): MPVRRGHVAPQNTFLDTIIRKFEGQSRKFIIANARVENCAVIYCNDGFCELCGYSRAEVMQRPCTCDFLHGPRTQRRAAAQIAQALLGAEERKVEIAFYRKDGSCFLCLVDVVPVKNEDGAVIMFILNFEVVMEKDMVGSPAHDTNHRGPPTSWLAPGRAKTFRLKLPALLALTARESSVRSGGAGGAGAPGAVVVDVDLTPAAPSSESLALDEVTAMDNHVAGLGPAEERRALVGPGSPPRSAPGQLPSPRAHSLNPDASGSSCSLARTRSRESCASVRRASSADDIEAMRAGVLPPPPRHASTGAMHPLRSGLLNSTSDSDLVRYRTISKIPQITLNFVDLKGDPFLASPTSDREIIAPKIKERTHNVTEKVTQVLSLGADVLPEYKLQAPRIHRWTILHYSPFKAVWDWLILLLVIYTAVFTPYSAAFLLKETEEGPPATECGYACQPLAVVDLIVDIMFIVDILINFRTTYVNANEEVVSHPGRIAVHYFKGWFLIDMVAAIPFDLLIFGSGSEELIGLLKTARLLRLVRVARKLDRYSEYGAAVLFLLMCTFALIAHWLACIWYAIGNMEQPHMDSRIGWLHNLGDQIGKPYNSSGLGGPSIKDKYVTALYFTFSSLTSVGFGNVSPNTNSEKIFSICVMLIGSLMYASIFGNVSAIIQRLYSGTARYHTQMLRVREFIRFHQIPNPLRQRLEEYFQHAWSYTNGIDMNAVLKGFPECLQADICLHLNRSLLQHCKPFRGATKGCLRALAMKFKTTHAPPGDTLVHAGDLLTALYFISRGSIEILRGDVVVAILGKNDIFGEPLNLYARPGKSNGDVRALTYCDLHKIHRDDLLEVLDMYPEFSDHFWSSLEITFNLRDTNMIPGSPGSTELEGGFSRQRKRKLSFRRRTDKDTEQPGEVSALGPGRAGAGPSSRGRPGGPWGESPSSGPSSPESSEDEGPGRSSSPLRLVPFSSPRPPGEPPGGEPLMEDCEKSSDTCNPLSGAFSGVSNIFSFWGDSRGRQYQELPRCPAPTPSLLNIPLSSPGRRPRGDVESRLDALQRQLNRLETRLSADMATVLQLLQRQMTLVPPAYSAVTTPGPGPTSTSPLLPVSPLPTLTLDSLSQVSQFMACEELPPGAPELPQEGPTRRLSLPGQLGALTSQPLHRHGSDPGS

SMILES	pIC50 (Kv1.3 potassium channel; [2])	pIC50 (Kv1.3 potassium channel; [4])	pIC50 (hERG channel; [1])	pIC50 (hERG channel; [3])
O=C(C[C@H](O)C(F)F)N1CC(=O)N2C[C@@H](c3c(O)ccc(Cl)c3Cl)C[C@H]2C1 [Compound 75, (7R,8aS)-7-(2,3-dichloro-6-hydroxyphenyl)-2-[(3S)-4,4-difluoro-3-hydroxybutanoyl] hexahydropyrrolo [1,2-a]pyrazin-4-one]	> 6.00	–	< 4.52	–
O=C1CC(CN2CCNCC2)C[C@@H]2C[C@H](c3c(O)ccc(Cl)c3Cl)CN12 (stereo partly drawn) [Compound 241, (2R,8aR)-2-(2,3-dichloro-6-hydroxyphenyl)-7-(piperazin-1-ylmethyl)-hexahydro-1H-indolizin-5-one]	> 6.00	–	< 4.52	–
COC[C@@H](CO)N1CC(=O)N2C[C@@H](c3c(O)ccc(Cl)c3Cl)C[C@H]2C1 (single isomer, unassigned; isomer 2) [Compound 119]	> 6.00	–	< 4.52	–
O=C1OC[C@@H](O)[C@@H]2C[C@H](c3c(O)ccc(Cl)c3Cl)CN12 (single isomer, unassigned) [Compound 266]	> 6.00	–	< 4.52	–
O=C1O[C@H](CCO)[C@@H]2C[C@H](c3c(O)ccc(Cl)c3Cl)CN12 (single isomer, unassigned) [Compound 270]	> 6.00	–	> 4.52	–
O=C1O[C@H](CO)[C@@H]2C[C@H](c3c(O)ccc(Cl)c3Cl)CN12 (single isomer, unassigned) [Compound 254]	> 6.00	–	< 4.52	–
O=C1CN([C@H]2C[C@@H](O)[C@@H](O)C2)C[C@@H]2C[C@H](c3c(O)ccc(Cl)c3Cl)CN12 (relative stereo) [Compound 130, (7R,8aS)-7-(2,3-dichloro-6-hydroxyphenyl)-2-[(1R,3R,4S)-rel-3,4-dihydroxycyclopentyl]-hexahydropyrrolo [1,2-a]pyrazin-4-one]	> 6.00	–	< 4.52	–
CNC(=O)CC1OC[C@@H]2C[C@H](c3c(O)ccc(Cl)c3Cl)CCN2C1=O (stereo partly drawn) [Compound 188, 2-[(8R,9aS)-8-(2,3-dichloro-6-hydroxyphenyl)-4-oxo-hexahydro-1H-pyrido[2,1-c] [1,4]oxazin-3-yl]-N-methylacetamide]	> 6.00	–	< 4.52	–
O=C1C[C@H](CO)C[C@@H]2C[C@H](c3c(O)ccc(Cl)c3Cl)CN12 (single isomer, unassigned) [Compound 238]	> 6.00	–	< 4.52	–
O=C(N1CC[C@H](O)C1)N1CC(=O)N2C[C@@H](c3c(O)ccc(Cl)c3Cl)C[C@H]2C1 [Compound 102, (7R,8aS)-7-(2,3-dichloro-6-hydroxyphenyl)-2-[(3S)-3-hydroxypyrrolidine-1-carbonyl]-hexahydropyrro[1,2-a]pyrazine-4-one]	> 6.00	–	< 4.52	–
O=C([C@H](O)CO)N1CC(=O)N2CC[C@H](c3c(O)ccc(Cl)c3Cl)C[C@@H]2C1 (relative stereo) [Compound 10, (8S,9aR)-rel-8-(2,3-dichloro-6-hydroxyphenyl)-2-[(2R)-2,3-dihydroxypropanoyl]-hexahydro-1H-pyrido[1,2-a]pyrazin-4-one]	–	> 6.00	–	< 4.52
O=C1CNC[C@@H]2C[C@H](c3c(O)ccc(Cl)c3Cl)CCN12 [Compound 15]	–	> 6.00	–	> 4.52
O=C1CN(c2ncc[nH]2)C[C@@H]2C[C@H](c3c(O)ccc(Cl)c3Cl)CN12 [Compound 176, (7R,8aS)-7-(2,3-dichloro-6-hydroxyphenyl)-2-(1H-imidazol-2-yl)-hexahydropyrrolo[1,2-a]pyrazin-4-one]	> 6.00	–	> 4.52	–
O=C1C(CN2CCCC2)OC[C@@H]2C[C@H](c3c(O)ccc(Cl)c3Cl)CCN12 (stereo partly drawn) [Compound 181, (8R,9aS)-8-(2,3-dichloro-6-hydroxyphenyl)-3-(pyrrolidin-1-ylmethyl)-hexahydro-1H-pyrido[2,1-c][1,4]oxazin-4-one]	> 6.00	–	> 5.00	–
O=C1O[C@@H](CN2CCOCC2)[C@@H]2C[C@H](c3c(O)ccc(Cl)c3Cl)CN12 (single isomer, unassigned) [Compound 284]	> 6.00	–	< 4.52	–
CCC(=O)N1CC(=O)N2C[C@@H](c3c(O)ccc(Cl)c3Cl)C[C@H]2C1 [Compound 8, (7R,8aS)-7-(2,3-dichloro-6-hydroxyphenyl)-2-pro-pionylhexahydropyrrolo [1,2-a]pyrazin-4(1H)-one]	–	> 6.00	–	> 4.52
C[C@H]1CN(C(=O)CO)C[C@@H]2C[C@H](c3c(O)ccc(Cl)c3Cl)CN2C1=O (single isomer, unassigned; isomer 2) [Compound 92]	> 6.00	–	< 4.52	–
C[C@@H](O)[C@@H]1OC(=O)N2C[C@@H](c3c(O)ccc(Cl)c3Cl)C[C@@H]12 (single isomer, unassigned) [Compound 259]	> 6.00	–	< 4.52	–
C[C@H](O)C(=O)N1CC(=O)N2CC[C@@H](c3c(O)ccc(Cl)c3Cl)C[C@H]2C1 [Compound 49, (8R,9aS)-8-(2,3-dichloro-6-hydroxyphenyl)-2-[(2S)-2-hydroxypropanoyl]-hexahydro-1H-pyrido[1,2-a]pyrazin-4-one]	–	> 6.00	–	< 4.52
O=C1[C@@H](CO)NC[C@@H]2C[C@H](c3c(O)ccc(Cl)c3Cl)CCN12 [Compound 57, (3R,8R,9aS)-8-(2,3-dichloro-6-hydroxyphenyl)-3-(hydroxymethyl)-octahydropyrido[1,2-a]pyrazin-4-one]	–	> 6.00	–	< 4.52
O=C(N1CC(CO)C1)N1CC(=O)N2C[C@@H](c3c(O)ccc(Cl)c3Cl)C[C@H]2C1 [Compound 103, (7R,8aS)-7-(2,3-dichloro-6-hydroxypheny1)-2-[3-(hydroxymethyl)azetidine-1-carbonyl]-hexahydropyrro[1,2-a]pyrazine-4-one]	> 6.00	–	< 4.52	–
O=C1CN(C(CO)CO)C[C@@H]2C[C@H](c3c(O)ccc(Cl)c3Cl)CCN12 [Compound 122, (8R,9aS)-8-(2,3-dichloro-6-hydroxyphenyl)-2-(1,3-dihydroxypropan-2-yl)-hexahydro-1H-pyrido[1,2-a] pyrazin-4-one]	> 6.00	–	< 4.52	–
O=C1C[C@@H](N2CC[C@H](O)C2)C[C@@H]2C[C@H](c3c(O)ccc(Cl)c3Cl)CN12 (single isomer, unassigned) [Compound 194]	> 6.00	–	< 4.52	–

Continued, in another order:

pIC50 (Kv1.3 potassium channel; [2])	pIC50 (Kv1.3 potassium channel; [4])	SMILES	pIC50 (hERG channel; [1])	pIC50 (hERG channel; [3])
> 6.00	–	O=C([C@@H]1OCC[C@@H]1O)N1CC(=O)N2C[C@@H](c3c(O)ccc(Cl)c3Cl)C[C@H]2C1 [Compound 74, (7R,8aS)-7-(2,3-dichloro-6-hydroxyphenyl)-2-[(2R,3S)-3-hydroxyoxolane-2-carbonyl]-hexahydropyrrolo [1,2-a]pyrazin-4-one]	< 4.52	–
> 6.00	–	C[C@H]1[C@@H]2C[C@H](c3c(O)ccc(Cl)c3Cl)CCN2C(=O)CN1C(=O)CO (single isomer, unassigned; isomer 2) [Compound 84]	< 4.52	–
> 6.00	–	O=C(CC(O)C(F)F)N1CC(=O)N2C[C@@H](c3c(O)ccc(Cl)c3Cl)C[C@H]2C1 (stereo partly drawn) [Compound 73, (7R,8aS)-7-(2,3-dichloro-6-hydroxyphenyl)-2-(4,4-difluoro-3-hydroxybutanoyl)-hexahydropyrrolo [1,2-a]pyrazin-4-one]	< 4.52	–
> 6.00	–	O=C1C[C@@H](c2cn[nH]c2)C[C@@H]2C[C@H](c3c(O)ccc(Cl)c3Cl)CN12 (single isomer, unassigned) [Compound 215]	< 4.52	–
> 6.00	–	NC[C@@]1(O)CC(=O)N2C[C@@H](c3c(O)ccc(Cl)c3Cl)C[C@H]2C1 (single isomer, unassigned) [Compound 218]	< 4.52	–
> 6.00	–	CCO[C@H](CO)C(=O)N1CC(=O)N2C[C@@H](c3c(O)ccc(Cl)c3Cl)C[C@H]2C1 [Compound 66, (7R,8aS)-7-(2,3-dichloro-6-hydroxyphenyl)-2-[(2R)-2-ethoxy-3-hydroxypropanoyl]-hexahydropyrrolo[1,2-a]pyrazin-4-one]	< 4.52	–
–	> 6.00	C[C@H](O)CC(=O)N1CC(=O)N2C[C@@H](c3c(O)ccc(Cl)c3Cl)C[C@H]2C1 [Compound 59, (7R,8aS)-7-(2,3-dichloro-6-hydroxyphenyl)-2-[(3S)-3-hydroxybutanoyl]-hexahydropyrrolo[1,2-a]pyrazin-4-one]	–	< 4.52
> 6.00	–	O=C(NC[C@@H]1OC(=O)N2C[C@@H](c3c(O)ccc(Cl)c3Cl)C[C@@H]12)C1CNC1 (single isomer, unassigned) [Compound 277]	< 4.52	–
> 6.00	–	O=C(NCCO)N1CC(=O)N2C[C@@H](c3c(O)ccc(Cl)c3Cl)C[C@H]2C1 [Compound 104, (7R,8aS)-7-(2,3-dichloro-6-hydroxyphenyl)-N-(2-hydroxyethyl)-4-oxo-hexahydropyrro[1,2-a]pyrazine-2-carboxamide]	< 4.52	–
> 6.00	–	O=C1CC(N2CCOCC2)C[C@@H]2C[C@H](c3c(O)ccc(Cl)c3Cl)CN12 (stereo partly drawn) [Compound 195, (2R,8aS)-2-(2,3-dichloro-6-hydroxyphenyl)-7-(morpholin-4-yl)-hexahydro-1-indolizin-5-one]	> 4.52	–
> 6.00	–	NC(=O)CC1OC[C@@H]2C[C@H](c3c(O)ccc(Cl)c3Cl)CCN2C1=O (stereo partly drawn) [Compound 187, 2-[(8R,9aS)-8-(2,3-dichloro-6-hydroxyphenyl)-4-oxo-hexahydro-1H-pyrido[2,1-c][1,4]oxazin-3-yl]acetamide]	< 4.52	–
